# Reference: US12036262B2, “Edible plant-derived nanoparticles for regulation of gut microbiota” (University of Louisville Research Foundation, Inc., priority 2017, dated 2024)
# Legend:
# [1] = system: MC-38 cells; assay: Migration assay, intracellular LGG; type: cell-based, C57BL/6 murine
# Experimental: Cells. C57BL/6 murine colon adenocarcinoma MC-38 cells (gender unknown; Kerafast, Inc., Boston, Massachusetts, United States of America) or human epithelial colorectal adenocarcinoma Caco-2 cells (American Type Culture Collection, ATCC®, Manassas, Virginia, United States of America) were grown in tissue culture plates with Dulbecco's modified Eagle's medium (DMEM) supplemented with 10% heat-inactivated fetal bovine serum (FBS), 100 U/mL penicillin, and 100 μg/mL streptomycin at 37° C. in a 5% CO2 atmosphere.
# Migration Assays. MC-38 or Caco-2 cells (ATCC) were seeded at 1×10^5 cells per well in a 12-well tissue culture plate with Dulbecco's modified Eagle's medium (DMEM) without antibiotics. The cells were inoculated with 1×10^7 bacteria per well for 90 minutes at 37° C. in a 5% CO2 atmosphere to allow bacterial adhesion and entry. The number of intracellular bacteria was quantified as described in Zhang & Wang, 1998.
# [2] = system: IL-22, IL-1β, TNFα; assay: ELISA of IL-22, IL-1β and TNFα in colon mucus; type: in vivo, mice
# Experimental: (§1) Enzyme-Linked Immunosorbent Assay (ELISA). The cytokine IL-22, IL-1β, and TNFα levels in cell culture supernatants or mouse colon mucus were quantified using ELISA kits (eBioscience) according to the manufacturer's instructions. Briefly, a microtiter plate was coated with anti-mouse IL-22, IL-1β and TNFα antibody at 1:200 overnight at 4° C. Excess binding sites were blocked with 200 μl of 1×ELISA/ELISPoT Diluent (eBioscience, San Diego, California, United States of America) for 1 hour at 22° C. After washing three times with PBS containing 0.05% Tween 20, the plate was incubated with detection antibody in blocking buffer for 1 hour at 22° C. After three washes, avidin conjugated with horseradish peroxidase and substrate were each added sequentially for 1 hour and 30 min at 22° C. An analysis of absorbance at 405 nm using a microtiter plate reader (BioTek Synergy HT, BioTek Instruments, Inc., Winooski, Vermont, United States of America) followed.
# [3] = system: LGG; assay: HPLC analysis of tryptophan metabolites in LGG MRS broth; type: cell-based, Lactobacillus rhamnosus
# Experimental: HPLC Analysis of Tryptophan Metabolites. The fecal samples and LGG MRS broth were diluted with an equal volume of methanol. After centrifugation at 10,000×g for 30 minutes, 50 μl of supernatant was injected for high-performance liquid chromatography (HPLC) analysis. The HPLC analysis was performed on an Agilent 1260 Infinity system equipped with an Agilent ZORBAX SB-C18 column (4.6×150 mm, 3.5 μm), with following parameters: mobile phase A: 5 mM NH4Ac in water modified with 0.1% formic acid (v/v); mobile phase B: 5 mM NH4Ac in 90% acetonitrile modified with 0.1% formic acid (v/v); gradient: 5% B in first 5 min, 5-20% B for 10 min, hold 20% B for 5 min, 20%-50% B for 5 min, hold 50% B for 5 min, 50%-100% B for 5 min, hold 100% B for 10 min, 100-5% B for 5 min; flow rate: 1.0 ml/min; temperature: 30° C. UV detection at 300 nm was used to monitor indole-3-carboxaldehyde (I3A) and indole-3-acetaldehyde (IAAld); FLD (ex=280 nm; em=350 nm) was used for detection of tryptophan and indole-3-acetamide (I3AM). The standard for I3A (Catalog No. 129445-5g), I3AM (Catalog No. 286281-1G), IAAld (Catalog No. I1000-25MG), and tryptophan (Catalog No. T0254-25g) were purchased from Sigma.
# [4] = system: monooxygenase ycnE; assay: ycnE expression in LGG (qPCR, mRNA sequencing, LC-MS/MS); type: cell-based, Lactobacillus rhamnosus
# Experimental: Quantitative Real-Time PCR for RNA Expression. The quantity of mature miRNAs was determined with quantitative real-time PCR (qPCR) using a miScript II RT kit (QIAGEN Inc., Germantown, Maryland, United States of America) and miScript SYBR Green PCR Kit (QIAGEN) with QIAGEN 3′ universal primers. For analysis of gene mRNA expression, 1 μg of total RNA was reverse transcribed using SuperScript III reverse transcriptase (Invitrogen, Waltham, Massachusetts, United States of America), and quantitation was performed using SsoAdvanced™ Universal SYBR Green Supermix (Bio-Rad Laboratories, Inc., Hercules, California, United States of America) and the listed primers (Table 1) with SsoAdvanced™ Universal SYBR Green Supermix (Bio-Rad). qPCR was performed using a Bio-Rad CFX96 qPCR System with each reaction run in triplicate. Analysis and fold-changes were determined using the comparative threshold cycle (Ct) method. Changes in miRNA or mRNA expression were calculated as fold-change. […]
# LGG mRNA Sequencing. […] Following quantitation with Qubit dsDNA HS Reagent (Catalog No., Q32854; Thermo Scientific,), 10 ng of dscDNA/sample was fragmented with an E220 Focused-ultrasonicator (Covaris, Matthews, North Carolina, United States of America). […] Libraries were then combined into equimolar pools, which were then measured for size and concentration. […] The first and second reads were each 83 bases.
# [5] = system: colon lymphocytes; assay: ELISA of IL-22 in supernatants of isolated colon lymphocytes; type: cell-based, mice
# Experimental: as §1, with “1×[…]” for “1×ELISA/ELISPoT”, “[…] Isolation” for “An analysis”, “Lymphoid Cells in the Colon. Intestinal lymphoid cells were isolated from the intestine by incubation in PBS supplemented with 1 mM EDTA, 15 mM HEPES and 10% FCS for 30 minutes” for “absorbance”, “37° C. Supernatants were discarded, and tissues were then incubated in RPMI supplemented with 15 mM HEPES and 300 units/mL collagenase type VIII (Sigma) for 30 minutes with gentle shaking. Lysates were gently pressed through nylon cell strainers (70 μm in diameter; […] Lymphocytes were recovered from the interface and washed twice.” for “405 nm using a microtiter plate reader (BioTek Synergy HT, BioTek Instruments, Inc., Winooski, Vermont, United States of America) followed.”
compound,measurement,setting,value
"ath-miR827: GELN-derived miRNA, SEQ ID NO: 81 (UUAGAUGACCAUCAACAAACU; expressed or natural sequence)",LGG entry into MC38 cells,[1],could prevent the entry of LGG into gut epithelial cells
"NC(=O)Cc1c[nH]c2ccccc12 [I3AM, indole-3-acetamide]",inhibitory effect on IL-22 production in AHR KO mice,[2]; AHR KO mice treated with LGG supernatant exposed to I3AM,did not occur
same,production of IAAld and I3A by LGG,"[3]; MRS media, different concentrations of I3AM",inhibited the production of IAAld and I3A in a dose-dependent manner
same,GELN-RNA-mediated induction of the I3A precursor IAAld in LGG cultures,[3]; addition of I3AM to LGG cultures,significantly inhibited
"mdo-miR7267-3p: GELN-derived miRNA, SEQ ID NO: 129 (CAUCCAGCCAUCCACCCCAGGCCAUC; expressed or natural sequence)",I3A in LGG cultures,[3],induction of I3A
same,I3AM in LGG cultures,[3],inhibition of I3AM
same,ycnE expression in LGG,[4],indeed inhibited
"O=CCc1c[nH]c2ccccc12 [IAAld, indole-3-acetaldehyde]",I3AM-mediated inhibitory effect on IL-22 production,[2]; colon mucus of WT mice gavaged with MRS medium from treated LGG,cancelled the I3AM-mediated inhibitory effort on IL-22 production
same,inhibitory effect of I3AM on the production of I3A,[3]; additional IAAld,cancelled
"ath-miR842: GELN-derived miRNA, SEQ ID NO: 82 (UCAUGGUCAGAUCCGUCAUCC; expressed or natural sequence)",LGG entry into MC38 cells,[1],could prevent the entry of LGG into gut epithelial cells
"O=Cc1c[nH]c2ccccc12 [I3A, indole-3-carboxaldehyde]",induction of IL-22 in colon lymphocytes from AHR KO mice,[5]; AHR KO mice,no evidence of an impact
same,IL-22 in supernatants of colon lymphocytes,[5]; colon lymphocytes from naïve B6 mice incubated for 3 hours,induced expression of IL-22
